Consider 1 compound from publication PMC4829596 (Frontiers in Microbiology, 2016).

In one data set the test system is S. aureus. The data set can be described thus: Determination of MIC. It is filed as cell-based, Staphylococcus aureus. The settings on record: lowest concentration at which the inhibitory effect was detectable; S. aureus. How it is done:
(§1) Minimal inhibitory concentrations (MICs) of purified compounds and commercially available standards were assessed against S. aureus, C. albicans, P. aeruginosa, K. pneumoniae, E. coli, ESBL K. pneumoniae, ESBL E. coli and the two MRSA strains (B337919 and B335466). Stock solutions of 5 × 10^6 μg/l of p-hydroxybenzaldehyde, and phenyllactic acid were prepared using water. Stock solutions of 1 × 10^8 μg/l indole-3-carboxylic acid, PAA and indole-3-acetic acid were prepared using methanol and diluted with water (working solution of 5 × 10^6 μg/l). Stocks of 1 × 10^6 μg/l of cFP and cPM were dissolved in water. […] Methanol and water were used as control.

For data set [1], the system named is MRSA Staphylococcus (S.) aureus B335466. The data set can be described thus: Determination of MIC. It is filed as cell-based. The settings on record: lowest concentration at which the inhibitory effect was detectable; MRSA 335. How it is done:
as §1

Data set [2] has as its system MRSA Staphylococcus (S.) aureus B337919. The data set can be described thus: Determination of MIC. It is filed as cell-based. The settings on record: lowest concentration at which the inhibitory effect was detectable; MRSA 337. How it is done: as §1
A further data set deals with P. aeruginosa. The data set is described as follows: Determination of MIC. In kind it is cell-based, Pseudomonas aeruginosa. Particulars: lowest concentration at which the inhibitory effect was detectable. How it is done:
as §1

In another data set the test system is C. albicans. The data set is described as follows: Determination of MIC. The settings on record: lowest concentration at which the inhibitory effect was detectable; C. albicans. It is filed as cell-based, Candida albicans. How it is done: as §1
A further data set concerns E. coli. The data set is described as follows: Determination of MIC. Particulars: lowest concentration at which the inhibitory effect was detectable; E. coli. In kind it is cell-based, Escherichia coli. How it is done: as §1
The next data set deals with ESBL E. coli. The data set can be described thus: Determination of MIC. It is filed as cell-based, Escherichia coli. The settings on record: lowest concentration at which the inhibitory effect was detectable; ESBL E. coli. How it is done: as §1
The test system of another data set is ESBL K. pneumoniae. The data set can be described thus: Determination of MIC. In kind it is cell-based, Klebsiella pneumoniae. The settings on record: lowest concentration at which the inhibitory effect was detectable; ESBL K. pneumoniae. How it is done: as §1
A further data set relates to K. pneumoniae. The data set is described as follows: Determination of MIC. It is filed as cell-based, Klebsiella pneumoniae. Particulars: lowest concentration at which the inhibitory effect was detectable; K. pneumoniae. How it is done: as §1
The subject of another data set is all tested organisms. The data set can be described thus: Determination of MIC, statements over all tested organisms. In kind it is cell-based. Particulars: against the tested microorganisms. How it is done:
as §1

The subject of data set [3] is human hepatocytic (HepG2) cells. The data set can be described thus: Cytotoxicity assay, lactate dehydrogenase release. In kind it is cell-based. The settings on record: compound 2mg/ml, 24 h, LDH. How it is done:
(§2) Cytotoxicity of the fungal extract and the identified compounds was determined measuring lactate dehydrogenase release using human intestinal epithelial (Caco2) and human hepatocytic (HepG2) cells. […] Cells were seeded into 96-well plates (5 × 10^4 cells per well) and incubated until a confluent cell layer had developed. After discarding of the media cells were incubated with 50 μl of media and 50 μl of fungal extract or compound (final concentration: PAA 2 × 10^6 μg/l, 4FP 2 × 10^6 μg/l, ICA 2 × 10^6 μg/l, IAA 2 × 10^5 μg/l, PLA 2 × 10^6 μg/l, cPM 2 × 10^6μg/l and cFP 2 × 10^6 μg/l) for 24 h at 37°C. […] LDH release was measured according to the manufacturer’s protocol (Sigma–Aldrich, USA).

The test system of data set [4] is human intestinal epithelial (Caco2) cells. The data set can be described thus: Cytotoxicity assay, lactate dehydrogenase release. It is filed as cell-based. Particulars: compound 2mg/ml, 24 h, LDH. How it is done:
as §2

In the next data set the test system is Caco2 cells. The data set can be described thus: XTT assay, metabolic active cells. It is filed as cell-based, human. The settings on record: compound 2mg/ml, XTT. How it is done: (§3) In parallel the % of metabolic cells was measured using the XTT [2,3-Bis-(2-methoxy-4-nitro-5-sulfophenyl)-2H-tetra zolium-5-carboxanilide] assay (Thermo Scientific). Briefly, after treatment with the fungal extract or the different compounds cells were incubated with XTT and phenanzine methosulfate (Thermo Scientific) for 2 h. Absorbance was measured at 450 nm and % of metabolic active cells was calculated versus the control sample (media). As controls we incubated the cells without fungal cultures or compound, and with VPA alone.

The test system of a further data set is HepG2 cells. The data set is described as follows: XTT assay, metabolic active cells. It is filed as cell-based, human. Particulars: compound 2mg/ml. How it is done:
as §3
Background: Tetrazolium assays rely on reduction of a dye to a coloured formazan, in cell work by metabolically active cells.

The subject of a further data set is Caco2 and HepG2 cells. It is filed as cell-based. The settings on record: at the determined MIC concentrations; range over compounds and cell lines. How it is done: as §2
Data set [5] relates to Bacillus subtilis, S. aureus and Micrococcus luteus. On the set-up: method as in Jayatilake et al., 1996; Thomas et al., 2010. Particulars: ref Jayatilake et al., 1996; Thomas et al., 2010; cited from earlier work.

Regarding `CSCCC1NC(=O)C2CCCN2C1=O` [cPM, cyclo-(L-proline-L-methionine)], the Inhibitory concentration in the data set with S. aureus is 2.5 g/L; in data set [1], 2.5 g/L; in data set [2], 2.5 g/L; with P. aeruginosa it was 5 g/L; in the data set on C. albicans it was 5 g/L; with E. coli it was 5 g/L. Moreover, the Inhibitory concentration with ESBL E. coli, with ESBL K. pneumoniae and in the data set on K. pneumoniae was 5 g/L in each case. This compound also yielded a growth inhibitory activity with all tested organisms of 2 g/L. Besides, in data set [3], the “% of living HepG2 cells” value is 3.99%. For the same compound, in data set [4], the “% of living Caco2 cells” value is 4.77%. Besides, in the data set with Caco2 cells, the “% of metabolic active Caco2 cells” value is on record as 99.18%. For the same compound, in the data set on HepG2 cells, the “% of metabolic active HepG2 cells” value was 107.47%. Moreover, in the data set on Caco2 and HepG2 cells, the dead cells was 3.99–8.61%. In addition, the antimicrobial activity entry in data set [5] is reported as “no antimicrobial activity”.
